Results reported in PubChem BioAssay (NCI).
Several values for one entry are separate records, joined by “and”; a condition that tells them apart may be missing. Equal entries are not always repeated.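 Five compound concentrations were applied to cells in 96-well plates for 48 hours; endpoints were derived by simple linear interpolation of the resulting dose-response curve. Here, GI50 denotes the concentration required for 50% inhibition of growth. TGI is the concentration that stops growth completely.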

Tests used:
Experiment in all cases: NCI-60 cell line screen, 48 h
OVCAR-4 ovarian = system: OVCAR-4 ovarian
LOX IMVI melanoma = system: LOX IMVI melanoma
SN12C renal = system: SN12C renal
NCI-H226 lung = system: NCI-H226 lung
UACC-62 melanoma = system: UACC-62 melanoma
HOP-62 NSCLC = system: HOP-62 NSCLC
SF-268 CNS = system: SF-268 CNS
A549 NSCLC = system: A549 NSCLC
COLO 205 colon = system: COLO 205 colon
SK-MEL-2 melanoma = system: SK-MEL-2 melanoma

SMILES | TGI (OVCAR-4 ovarian) | TGI (LOX IMVI melanoma) | TGI (SN12C renal) | TGI (NCI-H226 lung) | TGI (UACC-62 melanoma) | TGI (HOP-62 NSCLC) | TGI (SF-268 CNS) | TGI (A549 NSCLC) | TGI (COLO 205 colon) | GI50 (OVCAR-4 ovarian) [µM] | GI50 (SK-MEL-2 melanoma) [µM] | TGI (SK-MEL-2 melanoma) | GI50 (SN12C renal) [µM] | GI50 (NCI-H226 lung) [µM] | GI50 (UACC-62 melanoma) [µM] | GI50 (HOP-62 NSCLC) [µM] | GI50 (SF-268 CNS) [µM] | GI50 (A549 NSCLC) [µM] | GI50 (COLO 205 colon) [µM] | GI50 (LOX IMVI melanoma) [µM]
CC1CC(=O)Nc2ccc(Cl)cc2N1C(=O)CN1CCC(CCCCN(C)C)CC1 (stereo unspecified) | > 100 µM | > 100 µM | > 100 µM | > 100 µM | > 100 µM | > 100 µM | > 100 µM | > 100 µM | > 100 µM |  |  |  |  |  |  |  |  |  |  | 
CN1CCN(CCCOc2cccc3nc(Nc4cc(Cl)cc(Cl)c4)ccc23)CC1 | 8.14 µM |  | 13.9 µM | 4.04 µM | 3.68 µM | 2.81 µM | 3.38 µM | 3.55 µM | 3.13 µM | 2.55 | 1.79 | 3.54 µM | 3.74 | 1.95 | 1.95 | 1.37 | 1.69 | 1.98 | 1.63 | 
CCCCCC/C=C/C#CCCCCCCCC(=O)O | > 100 µM | > 100 µM | > 100 µM | > 100 µM |  |  | > 100 µM | > 100 µM | > 100 µM |  |  | > 100 µM |  |  |  |  |  |  |  | 
Nc1nc(=O)n(C2CC(O)C(CO)O2)cc1F (stereo unspecified) | > 100 µM | > 100 µM | > 25.8 µM | > 100 µM | > 100 µM | > 100 µM | > 100 µM | > 100 µM | > 100 µM | 47.7 |  | > 100 µM | 0.199 |  | < 0.0473 |  | 0.00946 | 0.0049 |  | 0.01
O=C1OC(CC(=O)c2ccc(F)cc2)C(Cl)=C1Cl (stereo unspecified) | 43.5 µM | 31.9 µM | 35.3 µM | 33.8 µM | 32.2 µM | 72.5 µM |  | > 100 µM |  |  |  | 45 µM |  |  |  |  |  |  |  | 
O=C(CCC(=O)Nc1ccccc1C(F)(F)F)N/N=C1\C(=N\NC(=O)CCC(=O)Nc2ccccc2C(F)(F)F)C(c2ccc3c(c2)OCO3)Oc2ccccc21 (stereo unspecified) | > 85.4 µM | > 100 µM | > 100 µM | > 100 µM | > 100 µM | 56.3 µM | 18.9 µM | > 100 µM | > 100 µM |  |  | > 100 µM |  |  |  |  |  |  |  | 
COc1ccccc1-n1cnc(N)c1C(=O)c1cc(OC)c(OC)c(OC)c1 | > 100 µM | > 100 µM | > 100 µM | > 100 µM | > 100 µM | > 100 µM | > 100 µM | > 100 µM | 40.3 µM | 6.5 |  |  | 5.65 | 4.34 | 1.88 | 37.4 | 4.44 | 4.42 | 4.5 | 6.39
COc1ccc(C(=O)/C=C/c2sc(Cl)nc2Cl)cc1 | 20.2 µM | 1.36 µM | 3.19 µM | 17.8 µM | 6.19 µM | 21.2 µM | 16.4 µM | 19.5 µM | 6.74 µM | 7.28 | 11.1 | 35.5 µM | 0.408 | 0.655 | 2.22 | 4.59 | 3.23 | 3.72 | 2.28 | 0.33
c1ccc2c(c1)[nH]c1cnc3c4ncccc4[nH]c3c12 | > 100 µM | > 100 µM | > 100 µM | > 100 µM | > 100 µM | > 100 µM | > 100 µM | > 100 µM | > 100 µM |  |  | > 100 µM |  |  |  |  |  |  |  | 
O=C1c2c(O)cccc2C(C(=O)CCCCCC(=O)C2c3cccc(O)c3C(=O)c3c(O)cccc32)c2cccc(O)c21 | 4.61 µM and 11 µM | 8.85 µM and 7.1 µM | 9.71 µM and 30 µM | 7.29 µM and 11.6 µM | 5.26 µM and 9.46 µM | 6.96 µM and 16.9 µM | 4.52 µM and 11.9 µM | 3.68 µM and 14.5 µM | 25 µM and 15.5 µM | 5.17 | 1.83 | 3.61 µM and 6.64 µM | 10.6 | 4.97 | 2.22 | 5.45 | 5.02 | 6.6 | 7.8 | 1.95
O=C(Nc1ccccc1[N+](=O)[O-])/C(=N/Nc1cccc(Cl)c1)c1c(O)c2ccccc2oc1=O | > 100 µM | > 100 µM |  | > 100 µM | > 100 µM |  | > 100 µM | > 100 µM | 47.6 µM |  |  | > 100 µM |  |  |  |  |  |  |  | 
O=C(NC1CCN(Cc2ccccc2)CC1)c1cc(-c2cccnc2)nc2ccc(Cl)cc12 | 68.5 µM | 17.2 µM | 29.2 µM | 50.3 µM | > 100 µM | 31.5 µM | 70.1 µM | 44.8 µM | > 100 µM | 9.01 |  |  | 5.2 | 9.72 | 17.4 | 11.8 | 9.27 | 4.61 | 5.28 | 3.27
Nc1cn(C2OC(CC(c3ccccc3)(c3ccccc3)c3ccccc3)C(O)C2O)c(=O)[nH]c1=O (stereo unspecified) |  | 35.2 µM | 49.4 µM | > 100 µM | 28.5 µM | 63.1 µM | > 100 µM | 83.1 µM | 30.3 µM |  |  | > 100 µM |  |  |  |  |  |  |  | 
CCOC(=O)c1oc2c(OC)ccc3c2c1CCC3 | > 100 µM | > 100 µM | > 100 µM |  | > 100 µM | > 100 µM | > 100 µM | > 100 µM | > 100 µM |  |  | > 100 µM |  |  |  |  |  |  |  | 
O=S(=O)(C1=CC(S(=O)(=O)c2ccccc2)COC1)c1ccccc1 (stereo unspecified) | > 100 µM | > 100 µM | > 100 µM |  | > 100 µM | > 100 µM | > 100 µM | > 100 µM | > 100 µM |  |  | > 100 µM |  |  |  |  |  |  |  | 
CC(=O)Nc1ccccc1-c1nc2ccccc2nc1-c1ccccc1 | > 100 µM |  | > 100 µM |  | > 100 µM | > 100 µM |  | > 100 µM | > 100 µM |  |  | > 100 µM |  |  |  |  |  |  |  | 
CC(C)N(C(=O)C12C3C4C1C1C2C3C41C(=O)C(C)(C)C)C(C)C (stereo unspecified) | > 100 µM | > 100 µM | > 100 µM |  | > 100 µM | > 100 µM | > 100 µM | > 100 µM | > 100 µM |  |  | > 100 µM |  |  |  |  |  |  |  | 
